Measured values taken from patent publication US20250154138A1, “Small Molecule IL-17A Modulators” (BeiGene, Ltd., priority 2022, published 2025).
pIC50: −log10 of the molar value.

Key:
[1] = target: human IL-17A / human IL-17RA (Homo sapiens (Human), UniProt Q16552); experiment: Human IL-17A biochemical assay (HTRF, blocking of IL-17A binding to IL-17RA); settings: 0.4 nM IL-17A, 0.3 nM IL-17RA, max compound concentration 10 uM
Method in brief: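 HTRF readout (ex337, em620/665 nm ratio) after anti-6His Tb cryptate and anti-human IgG-XL665 detection, 1 h RT. Beforehand, 0.4 nM IL-17A sat with compound 3 h RT, then 0.3 nM IL-17RA 1 h. IC50 by four-parameter logistic fit.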

[2] = tested on: IL-17-induced GROα secretion from HT-29 cells; experiment: GROα release assay in human colorectal adenocarcinoma epithelial cell (HT-29, ELISA); assay type: cell-based; settings: Homo sapiens, HT-29, 48 h, 10 ng/mL IL-17A, highest concentration 10 μM, read-out: Cellular assay HT29 cell/CXCL1 IC50
Method in brief: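 IC50 values come from four-parameter fits of GROα levels, quantified by ELISA (450 nm, standard curve) in supernatants. Compounds, 4-fold serially diluted from 10 μM, were mixed 15 min with IL-17A (10 ng/mL final) before 48 h incubation with HT-29 cells at 37°C.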

Chain of human IL-17A / human IL-17RA (Q16552 24-155): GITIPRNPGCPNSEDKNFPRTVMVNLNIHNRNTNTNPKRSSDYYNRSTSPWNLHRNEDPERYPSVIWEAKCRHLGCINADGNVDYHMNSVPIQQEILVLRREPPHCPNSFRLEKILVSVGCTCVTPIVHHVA

SMILES | pIC50 [1] | pIC50 [2]
Cc1nonc1C(=O)NC(C(=O)Nc1ccc2c(c1)CC(N1C[C@@H](C(F)(F)F)NC1=O)C2)C1Cc2ccc(Cl)cc2C2(CC2)C1 (stereo partly drawn) [Example 227, N-(1-(7′-chloro-3′,4′-dihydro-2′H-spiro[cyclopropane-1,1′-naphthalen]-3′-yl)-2-oxo-2-((2-((S)-2-oxo-4-(trifluoromethyl)imidazolidin-1-yl)-2,3-dihydro-1H-inden-5-yl)amino)ethyl)-4-methyl-1,2,5-oxadiazole-3-carboxamide] | 6.95 | 6.78
COC(=O)C1(N2CC3(CC3)CNC2=O)Cc2ccc(NC(=O)C(NC(=O)c3ccnn3C)C3CCC(C(C)C)CC3)cc2C1 (stereo not shown) [Example 148, methyl 5-(2-(4-isopropylcyclohexyl)-2-(1-methyl-1H-pyrazole-5-carboxamido)acetamido)-2-(6-oxo-5,7-diazaspiro[2.5]octan-5-yl)-2,3-dihydro-1H-indene-2-carboxylate] | 7.21 | 6.79
CNC(=O)C1(N2C[C@@H](C(C)C)NC2=O)Cc2ccc(NC(=O)C(NC(=O)c3ccnn3C)C3CCc4ccc(Cl)cc4C3)cc2C1 (stereo partly drawn) [Example 196, N-(1-(7-chloro-1,2,3,4-tetrahydronaphthalen-2-yl)-2-((2-((R)-4-isopropyl-2-oxoimidazolidin-1-yl)-2-(methylcarbamoyl)-2,3-dihydro-1H-inden-5-yl)amino)-2-oxoethyl)-1-methyl-1H-pyrazole-5-carboxamide] | 7.70 | 7.23
CNC(=O)C1(N2C[C@@H](C(C)C)NC2=O)Cc2ccc(NC(=O)C(NC(=O)c3ccnn3C)C3CCc4c(Cl)cccc4C3)cc2C1 (stereo partly drawn) [Example 201, N-(1-(5-chloro-1,2,3,4-tetrahydronaphthalen-2-yl)-2-((2-((R)-4-isopropyl-2-oxoimidazolidin-1-yl)-2-(methylcarbamoyl)-2,3-dihydro-1H-inden-5-yl)amino)-2-oxoethyl)-1-methyl-1H-pyrazole-5-carboxamide] | 8.19 | 7.40
CC(C)[C@@H]1CN(C2(C(=O)NC(CO)C3CCC3)Cc3ccc(NC(=O)[C@@H](NC(=O)c4ccnn4C)C4CCCCC4)cc3C2)C(=O)N1 (stereo partly drawn) [Example 86, N-((1S)-2-((2-((1-cyclobutyl-2-hydroxyethyl)carbamoyl)-2-((R)-4-isopropyl-2-oxoimidazolidin-1-yl)-2,3-dihydro-1H-inden-5-yl)amino)-1-cyclohexyl-2-oxoethyl)-1-methyl-1H-pyrazole-5-carboxamide] | 7.66 | 7.63
CNC(=O)C1(N2CC3(CC3)CNC2=O)Cc2ccc(NC(=O)[C@@H](NC(=O)c3ccnn3C(C)C)C(C3CC3)C3CC3)cc2C1 (stereo partly drawn) [Example 115, N-((2S)-1,1-dicyclopropyl-3-((2-(methylcarbamoyl)-2-(6-oxo-5,7-diazaspiro[2.5]octan-5-yl)-2,3-dihydro-1H-inden-5-yl)amino)-3-oxopropan-2-yl)-1-isopropyl-1H-pyrazole-5-carboxamide] | 6.59 | 7.14
CNC(=O)C1(N2C[C@@H](C(C)C)NC2=O)Cc2cc(F)c(NC(=O)[C@@H](NC(=O)c3ccnn3C)C3CCCCC3)cc2C1 (stereo partly drawn) [Example 119, N-((1S)-1-cyclohexyl-2-((6-fluoro-2-((R)-4-isopropyl-2-oxoimidazolidin-1-yl)-2-(methylcarbamoyl)-2,3-dihydro-1H-inden-5-yl)amino)-2-oxoethyl)-1-methyl-1H-pyrazole-5-carboxamide] | 7.14 | 6.84
CNC(=O)C1(N2C[C@@H](C(C)C)NC2=O)Cc2ccc(NC(=O)[C@@H](NC(=O)c3ccnn3C)C(C3CC3)C3CC3)cc2C1 (stereo partly drawn) [Example 90, N-((2S)-1,1-dicyclopropyl-3-((2-((R)-4-isopropyl-2-oxoimidazolidin-1-yl)-2-(methylcarbamoyl)-2,3-dihydro-1H-inden-5-yl)amino)-3-oxopropan-2-yl)-1-methyl-1H-pyrazole-5-carboxamide] | 7.43 | 7.31
Cc1nonc1C(=O)N[C@H](C(=O)Nc1ccc2c(c1)CC(C(=O)Nc1c(F)cccc1Cl)(N1C[C@@H](C(C)C)NC1=O)C2)C(C1CC1)C1CC1 (stereo partly drawn) [Example 275, N-((2S)-1-((2-((2-chloro-6-fluorophenyl)carbamoyl)-2-((R)-4-isopropyl-2-oxoimidazolidin-1-yl)-2,3-dihydro-1H-inden-5-yl)amino)-3,3-dicyclopropyl-1-oxopropan-2-yl)-4-methyl-1,2,5-oxadiazole-3-carboxamide] | 7.21 | 6.87
CNC(=O)C1(N2C[C@@H](Cc3ccccc3)NC2=O)Cc2ccc(NC(=O)[C@@H](NC(=O)c3ccnn3C)C3CCCCC3)cc2C1 (stereo partly drawn) [Example 37, N-((1S)-2-((2-((R)-4-benzyl-2-oxoimidazolidin-1-yl)-2-(methylcarbamoyl)-2,3-dihydro-1H-inden-5-yl)amino)-1-cyclohexyl-2-oxoethyl)-1-methyl-1H-pyrazole-5-carboxamide] | 6.95 | 5.83
CNC(=O)C1(N2C[C@@H](C3CC3)NC2=O)Cc2ccc(NC(=O)[C@@H](NC(=O)c3ccnn3C)C3CCCCC3)cc2C1 (stereo partly drawn) [Example 41, N-((1S)-1-cyclohexyl-2-((2-((R)-4-cyclopropyl-2-oxoimidazolidin-1-yl)-2-(methylcarbamoyl)-2,3-dihydro-1H-inden-5-yl)amino)-2-oxoethyl)-1-methyl-1H-pyrazole-5-carboxamide] | 7.00 | 6.31
CC(C)[C@@H]1CN(C2(C(=O)NCC(F)(F)F)Cc3ccc(NC(=O)[C@@H](NC(=O)c4ccnn4C)C4CCCCC4)cc3C2)C(=O)N1 (stereo partly drawn) [Example 68, N-((1S)-1-cyclohexyl-2-((2-((R)-4-isopropyl-2-oxoimidazolidin-1-yl)-2-((2,2,2-trifluoroethyl)carbamoyl)-2,3-dihydro-1H-inden-5-yl)amino)-2-oxoethyl)-1-methyl-1H-pyrazole-5-carboxamide] | 7.52 | 7.43
CC(C)[C@@H]1CN(C2(C(=O)Nc3ccccc3)Cc3ccc(NC(=O)[C@@H](NC(=O)c4ccnn4C)C4CCCCC4)cc3C2)C(=O)N1 (stereo partly drawn) [Example 151, N-((1S)-1-cyclohexyl-2-((2-((R)-4-isopropyl-2-oxoimidazolidin-1-yl)-2-(phenylcarbamoyl)-2,3-dihydro-1H-inden-5-yl)amino)-2-oxoethyl)-1-methyl-1H-pyrazole-5-carboxamide] | 7.51 | 7.00
Cc1nonc1C(=O)N[C@H](C(=O)Nc1ccc2c(c1)CC(C(=O)Nc1ccccc1F)(N1C[C@@H](C(C)C)NC1=O)C2)C(C1CC1)C1CC1 (stereo partly drawn) [Example 262, N-((2S)-1,1-dicyclopropyl-3-((2-((2-fluorophenyl)carbamoyl)-2-((R)-4-isopropyl-2-oxoimidazolidin-1-yl)-2,3-dihydro-1H-inden-5-yl)amino)-3-oxopropan-2-yl)-4-methyl-1,2,5-oxadiazole-3-carboxamide] | 7.00 | 6.35
Cc1nonc1C(=O)N[C@H](C(=O)Nc1ccc2c(c1)CC(c1nc3cccc(C(F)(F)F)c3[nH]1)(N1CC3(CC3)CNC1=O)C2)C1CCC(F)(F)CC1 (stereo partly drawn) [Example 192, N-((1S)-1-(4,4-difluorocyclohexyl)-2-oxo-2-((2-(6-oxo-5,7-diazaspiro[2.5]octan-5-yl)-2-(7-(trifluoromethyl)-1H-benzo[d]imidazol-2-yl)-2,3-dihydro-1H-inden-5-yl)amino)ethyl)-4-methyl-1,2,5-oxadiazole-3-carboxamide] | 5.78 | 5.91
CNC(=O)C1(N2CC(C)NC2=O)Cc2cc3nc([C@@H](NC(=O)c4ccnn4C)C4CCCCC4)[nH]c3cc2C1 (stereo partly drawn) [Example 5, 2-((S)-cyclohexyl(1-methyl-1H-pyrazole-5-carboxamido)methyl)-N-methyl-6-(4-methyl-2-oxoimidazolidin-1-yl)-1,5,6,7-tetrahydroindeno[5,6-d]imidazole-6-carboxamide] | 6.39 | 6.45
CNC(=O)C1(N2C[C@@H](C(C)C)NC2=O)Cc2ccc(NC(=O)[C@@H](NC(=O)c3cccnc3)C3CCCCC3)cc2C1 (stereo partly drawn) [Example 58, N-((1S)-1-cyclohexyl-2-((2-((R)-4-isopropyl-2-oxoimidazolidin-1-yl)-2-(methylcarbamoyl)-2,3-dihydro-1H-inden-5-yl)amino)-2-oxoethyl)nicotinamide] | 6.23 | 5.84
Cc1nonc1C(=O)N[C@H](C(=O)Nc1ccc2c(c1)CC(C(=O)Nc1cccc(F)c1)(N1C[C@@H](C(C)C)NC1=O)C2)C(C1CC1)C1CC1 (stereo partly drawn) [Example 236, N-((2S)-1,1-dicyclopropyl-3-((2-((3-fluorophenyl)carbamoyl)-2-((R)-4-isopropyl-2-oxoimidazolidin-1-yl)-2,3-dihydro-1H-inden-5-yl)amino)-3-oxopropan-2-yl)-4-methyl-1,2,5-oxadiazole-3-carboxamide] | 6.61 | 6.27
CNC(=O)C1(N2CC(Cc3ccccc3)CNC2=O)Cc2ccc(NC(=O)[C@@H](NC(=O)c3ccnn3C)C3CCCCC3)cc2C1 (stereo partly drawn) [Example 99, N-((1S)-2-((2-(5-benzyl-2-oxotetrahydropyrimidin-1(2H)-yl)-2-(methylcarbamoyl)-2,3-dihydro-1H-inden-5-yl)amino)-1-cyclohexyl-2-oxoethyl)-1-methyl-1H-pyrazole-5-carboxamide] | 6.56 | 5.61
Cn1nccc1C(=O)N[C@H](C(=O)Nc1ccc2c(c1)CC(CNc1ccccc1F)(N1CC3(CC3)CNC1=O)C2)C1CCCCC1 (stereo partly drawn) [Example 172, N-((1S)-1-cyclohexyl-2-((2-(((2-fluorophenyl)amino)methyl)-2-(6-oxo-5,7-diazaspiro[2.5]octan-5-yl)-2,3-dihydro-1H-inden-5-yl)amino)-2-oxoethyl)-1-methyl-1H-pyrazole-5-carboxamide] | 6.40 | 6.42
